From patent US4638070A, “Heterocyclic amino-alcohol derivatives” (Continental Pharma, priority 1980, dated 1987)

Experiments:
[1] = test system: unanaesthetized, hypertension-suffering rat; test: Antihypertensive activity (systolic arterial pressure), oral; format: in vivo; conditions: 60 mg/kg, hypertensive rat, 3 hours
Procedure: (2) The antihypertensive activity was measured on unanaesthetized, hypertension-suffering rat. The tested substances were orally given at a rate of 60 mg/kg. The systolic arterial pressure was measured every 30 minutes for 2 hours before and for 3 hours after the tested product was given. Results are expressed as follows: […]
O: no reduction of arterial pressure.
+: reduction lower than 10 mm Hg.
++: reduction of 10 to 20 mm Hg.
+++: reduction higher than 20 mm Hg.

[2] = Acute toxicity, oral, LD50 (Litchfield and Wilcoxon); conditions: mouse, in vivo, fasted male mice, confidence limits p=95% in brackets
Procedure: (1) The acute toxicity was determined on fasted male mice. The tested substances were orally administered and LD50 values (lethal dose for 50% of animals) were calculated according to the method of Litchfield and Wilcoxon (J. Pharmacol. exp. Ther. 96, 94-113, 1949). These LD50 values are given in mg/kg and also, when possible, with their confidence limits for p=95%.

[3] = test system: guinea-pig ileum (acetylcholine contractions); test: Antispasmodic activity in vitro, contractions caused by acetylcholine; conditions: added 15 minutes before spasm-producing agent
Procedure: (§1) (4) The antispasmodic activity was measured in vitro, on guinea-pig ileum, the contractions of which were caused by histammne (Hist.), acetylcholine (Achol) or barium chloride (BaCl2). The tested products were added to perfusion bath 15 minutes before the spasm-producing agents.
(§2) The dose is given in micograms (μg) per ml of bath causing complete spasm inhibition.

[4] = test system: femoral artery; test: Vasodilator activity, femoral artery (technique of perfused paw); format: in vivo; set-up: key: O: no action; +: slight activity; ++: effect equal to half the effect of papaverine; +++: effect equal to that of papaverine; ++++: effect higher than that of papaverine; conditions: intra-arterial, 30 mg/kg, anaesthetized dog, vs papaverine at same dose
Procedure: (3) The vasodilator activity was measured at the level of femoral artery on anaesthetized dog (technique of perfused paw). The tested substances were given intra-arterially at the rate of 30 mg/kg. Results are expressed with respect to papaverine tested at the same dose.
++: effect equal to half the effect of papaverine.
+++: effect equal to that of papaverine.
++++: effect higher than that of papaverine.

[5] = test system: guinea-pig ileum (histamine contractions); test: Antispasmodic activity in vitro, contractions caused by histamine; conditions: added 15 minutes before spasm-producing agent
Procedure: as §1, §2

| Compound | ANTIHYPERTENSIVE ACTIVITY [1] | LD50 [2] [mg/kg] | ANTISPASMODIC ACTIVITY ACHOL (dose causing complete spasm inhibition) [3] [μg per ml] | VASODILATOR ACTIVITY [4] | ANTISPASMODIC ACTIVITY HIST. (dose causing complete spasm inhibition) [5] [μg per ml] |
| --- | --- | --- | --- | --- | --- |
| CC(NCCOc1ccccc1)C(O)c1ccc2c(c1)CCS2 (stereo not shown) [No 47] | ++ (reduction of 10 to 20 mm Hg) | > 4000 | 1.7 | ++ ++ | 1.7 |
| CC(NCCCCc1ccccc1)C(O)c1ccc2c(c1)CCO2 (stereo not shown) [No 35] | +++ (reduction higher than 20 mm Hg) | 430 | 1.7 | ++ | 0.8 |
| CC(NCCOc1ccccc1)C(O)c1ccc2c(c1)CCC2 (stereo not shown) [No 168] | +++ (reduction higher than 20 mm Hg) | > 2000 | 3.3 | ++++ | 3.3 |
| Cc1ccc(CCCCNC(C)C(O)c2ccc3c(c2)CCS3)cc1 (stereo not shown) [No 32] | +++ (reduction higher than 20 mm Hg) | 4000 | 1.7 |  | 0.8 |
| C=CCCCCCCCCCNC(C)C(O)c1ccc2c(c1)CCS2 (stereo not shown) [No 92] | ++ (reduction of 10 to 20 mm Hg) | > 4000 | 16.7 |  | 16.7 |
| CC(NCCCCc1ccccc1)C(O)c1ccc2c(c1)SCCO2 (stereo not shown) [No 122] | +++ (reduction higher than 20 mm Hg) | 1650 |  | ++++ | 0.3 |
| CC(NCCCC(=O)c1ccc(F)cc1)C(O)c1ccc2c(c1)CCS2 (stereo not shown) [No 111] | ++ (reduction of 10 to 20 mm Hg) | ~700 | 0.8 | +++ | 0.3 |
| CC1CSc2ccc(C(O)C(C)NCCCCc3ccccc3)cc21 (stereo not shown) [No 109] | +++ (reduction higher than 20 mm Hg) | ~2750 | 0.8 | +++ | 0.17 |
| CC1CSc2ccc(C(O)C(C)NCCCCc3ccccc3)cc2C1 (stereo not shown) [No 45] | + (reduction lower than 10 mm Hg) | > 4000 | 0.8 | +++ | 0.8 |
| CC1Cc2cc(C(O)C(C)NCCOCc3ccccc3)ccc2S1 (stereo not shown) [No 120] | ++ (reduction of 10 to 20 mm Hg) | ~1450 |  | +++ | 0.8 |
| CC(NCCCSc1ccccc1)C(O)c1ccc2c(c1)CCS2 (stereo not shown) [No 60] | +++ (reduction higher than 20 mm Hg) | > 2000 | 1.7 | +++ | 3.3 |
| CCCCCCCCNC(C)C(O)c1ccc2c(c1)CCC2 (stereo not shown) [No 164] | ++ (reduction of 10 to 20 mm Hg) | 1750 | 0.8 | +++ | 0.8 |
| CCCCSCCCNC(C)C(O)c1ccc2c(c1)CCC2 (stereo not shown) [No 178] | ++ (reduction of 10 to 20 mm Hg) | 870 |  | ++++ | 1.7 |
| CC1CSc2ccc(C(O)C(C)NCCOc3ccccc3)cc2C1 (stereo not shown) [No 49] | +++ (reduction higher than 20 mm Hg) | ~3700 | 1.7 | +++ | 3.3 |
| CC(NCCOc1ccc(Cl)cc1)C(O)c1ccc2c(c1)CCCS2 (stereo not shown) [No 40] | +++ (reduction higher than 20 mm Hg) | > 4000 | 1.7 | +++ | 1.7 |
| CC(NCCOc1ccc(Cl)cc1)C(O)c1ccc2c(c1)CCC2 (stereo not shown) [No 169] | +++ (reduction higher than 20 mm Hg) | > 4000 | 0.8 | +++ | 3.3 |
| CC1Cc2cc(C(O)C(C)NCCSc3ccccc3)ccc2S1 (stereo not shown) [No 106] | ++ (reduction of 10 to 20 mm Hg) | > 4000 | 1.7 | +++ | 1.7 |
| CCC(NCCCCc1ccccc1)C(O)c1ccc2c(c1)CCS2 (stereo not shown) [No 115] | +++ (reduction higher than 20 mm Hg) | ~2500 | 1.7 | +++ | 0.8 |
| CC(NCCCCc1ccccc1)C(O)c1ccc2c(c1)SCCS2 (stereo not shown) [No 100] | +++ (reduction higher than 20 mm Hg) | > 2000 | 1.7 | ++++ | 8.3 |
| CC1Cc2cc(C(O)C(C)NCCOc3ccccc3)ccc2S1 (stereo not shown) [No 61] | +++ (reduction higher than 20 mm Hg) | ~4000 | 3.3 | ++ | 3.3 |
| CC1Cc2cc(C(O)C(C)NCCCCc3ccc(Cl)cc3)ccc2O1 (stereo not shown) [No 65] | +++ (reduction higher than 20 mm Hg) | 160 | 1.7 | +++ | 0.8 |
| CCC(=O)OC(c1ccc2c(c1)CCS2)C(C)NCCCCc1ccccc1 (stereo not shown) [No 118] | +++ (reduction higher than 20 mm Hg) | 2020 | 1.7 | ++ | 0.8 |
| CC(NCCCCc1ccccc1)C(O)c1ccc2c(c1)CCC2 (stereo not shown) [No 163] | +++ (reduction higher than 20 mm Hg) | 800 | 0.8 | ++ | 1.7 |
| CCC(=O)c1ccc(OCCNC(C)C(O)c2ccc3c(c2)CCS3)cc1 (stereo not shown) [No 108] | ++ (reduction of 10 to 20 mm Hg) | > 4000 | 3.3 | +++ | 0.8 |
| CC(NCCOc1ccccc1)C(O)c1ccc2c(c1)SCCO2 (stereo not shown) [No 123] | +++ (reduction higher than 20 mm Hg) | > 4000 |  | ++++ | 0.8 |
| CC(NCCOc1ccccc1)C(O)c1ccc2c(c1)SCCS2 (stereo not shown) [No 104] | + ++ | > 4000 | 16.7 |  | 8.3 |
| CC1CCc2cc(C(O)C(C)NCCCCc3ccccc3)ccc2S1 (stereo not shown) [No 5, 1-(2-methyl-6-thiochromanyl)-2-(4-phenylbutylamino)-1-propanol] | ++ (reduction of 10 to 20 mm Hg) | 3600 | 3.3 | ++++ |  |
| CC(NCCc1ccccc1)C(O)c1ccc2c(c1)CCS2 (stereo not shown) [No 6] | + (reduction lower than 10 mm Hg) | < 500 | 3.3 | +++ |  |
| CCCC(=O)OC(c1ccc2c(c1)CCS2)C(C)NCCCCc1ccccc1 (stereo not shown) [No 130] | +++ (reduction higher than 20 mm Hg) | 3700 |  |  |  |
